Measured values as given in patent US8304447B2, “2-acylaminopropoanol-type glucosylceramide synthase inhibitors” (Genzyme Corporation, priority 2007, dated 2012).
pIC50: −log10 of the molar value.

System: GM3
Assay: GM3 Elisa assay
Assay type: cell-based
Details: Table 3 (IC 50 Values); B16-FO cells; read-out: IC50_uM_Mean
How it was run: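 Murine B16-FO melanoma cells attached 6 h on collagen, then exposed to compounds for 2 days at 37 °C. After formaldehyde fixation, cell-surface GM3 (NeuAc) was detected by anti-GM3 IgM and peroxidase anti-mouse IgM with Quantablu fluorescence (Ex 325/Em 420).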

SMILES	pIC50
COc1ccc(C(=O)CCCCC(=O)N[C@H](CN2CCCC2)[C@H](O)c2ccc3c(c2)OC(F)(F)C(F)(F)O3)cc1 [Compound 403]	5.52 to 6.00
O=C(N[C@H](CN1CCCC1)[C@H](O)c1ccc2c(c1)OC(F)(F)O2)OCc1ccccc1 [Compound 404]	5.00 to 5.52
COc1ccc(C(=O)CCCC(=O)N[C@H](CN2CCCC2)[C@H](O)c2ccc3c(c2)OC(F)(F)O3)cc1 [Compound 405]	5.52 to 6.00
O=C(N[C@H](CO)[C@H](O)c1ccc2c(c1)OC(F)(F)O2)OCc1ccccc1 [Compound 406]	5.00 to 5.52
COc1ccc(OCCC(=O)N[C@H](CN2CCCC2)[C@H](O)c2ccc3c(c2)OC(F)(F)O3)cc1 [Compound 407]	5.52 to 6.00
COc1ccc(C(=O)CCCCC(=O)N[C@H](CN2CCCC2)[C@H](O)c2ccc3c(c2)OC(F)(F)O3)cc1 [Compound 408]	5.52 to 6.00
COc1ccc(C(=O)CCCCCC(=O)N[C@H](CN2CCCC2)[C@H](O)c2ccc3c(c2)OC(F)(F)O3)cc1 [Compound 409]	6.00 to 7.00
O=C(Cc1ccc(OC(F)(F)F)cc1)N[C@H](CN1CCCC1)[C@H](O)c1ccc2c(c1)OC(F)(F)O2 [Compound 410]	5.00 to 5.52
CCCCCCCC(=O)N[C@H](CN1CCCC1)[C@H](O)c1ccc2c(c1)OC(F)(F)O2 [Compound 411]	5.00 to 5.52
CCCCOc1ccc([C@@H](O)[C@@H](CN2CCCC2)NC(=O)CCOc2ccc(OC)cc2)cc1 [Compound 412]	≥ 7.00
CCCCCCOc1ccc([C@@H](O)[C@@H](CN2CCCC2)NC(=O)CCOc2ccc(OC)cc2)cc1 [Compound 413]	≥ 7.00
COc1ccc(C(=O)CCCCC(=O)N[C@H](CN2CCCC2)[C@H](O)c2ccc(O)cc2)cc1 [Compound 414]	6.00 to 7.00

More lines, now with the values ahead:

pIC50	SMILES
6.00 to 7.00	COCCOCCOc1ccc([C@@H](O)[C@@H](CN2CCCC2)NC(=O)CCCCC(=O)c2ccc(OC)cc2)cc1 [Compound 415]
≥ 7.00	COc1ccc(OCCOc2ccc([C@@H](O)C(CN3CCCC3)NC(=O)CCCCC(=O)c3ccc(OC)cc3)cc2)cc1 (stereo partly drawn) [Compound 416]
≥ 7.00	COCCOc1ccc([C@@H](O)[C@@H](CN2CCCC2)NC(=O)CCCCC(=O)c2ccc(OC)cc2)cc1 [Compound 417]
≥ 7.00	COc1ccc(C(=O)CCCCC(=O)N[C@H](CN2CCCC2)[C@H](O)c2ccc(OCCOc3ccccc3)cc2)cc1 [Compound 418]
≥ 7.00	COc1ccc(C(=O)CCCCC(=O)N[C@H](CN2CCCC2)[C@H](O)c2ccc(OCCC3CCCCC3)cc2)cc1 [Compound 419]
≥ 7.00	COc1ccc(C(=O)CCCCC(=O)N[C@H](CN2CCCC2)[C@H](O)c2ccc(OCC3CCCCC3)cc2)cc1 [Compound 420]
≥ 7.00	COc1ccc(C(=O)CCCCC(=O)N[C@H](CN2CCCC2)[C@H](O)c2ccc(OCC3CCC3)cc2)cc1 [Compound 421]
5.00 to 5.52	COc1ccc(C(=O)CCCCC(=O)N(Cc2ccccn2)[C@H](CN2CCCC2)[C@H](O)c2ccc(O)cc2)cc1 [Compound 422]
5.52 to 6.00	COCCOc1ccc([C@@H](O)[C@@H](CN2CCCC2)N(CCOC)C(=O)CCCCC(=O)c2ccc(OC)cc2)cc1 [Compound 423]
5.00 to 5.52	COc1ccc(C(=O)CCCCC(=O)N(CC(=O)c2ccc(OC)cc2)[C@H](CN2CCCC2)[C@H](O)c2ccc(O)cc2)cc1 [Compound 424]
5.00 to 5.52	COc1ccc(C(=O)CCCCC(=O)N(Cc2cccnc2)[C@H](CN2CCCC2)[C@H](O)c2ccc(O)cc2)cc1 [Compound 425]
5.00 to 5.52	COc1ccc(CN(C(=O)CCCCC(=O)c2ccc(OC)cc2)[C@H](CN2CCCC2)[C@H](O)c2ccc(O)cc2)cc1 [Compound 426]
5.00 to 5.52	COc1ccc(C(=O)CCCCC(=O)N(Cc2ccc(OC(F)F)cc2)[C@H](CN2CCCC2)[C@H](O)c2ccc(O)cc2)cc1 [Compound 427]
5.00 to 5.52	COc1ccc(C(=O)CCCCC(=O)N(CC2CCCC2)[C@H](CN2CCCC2)[C@H](O)c2ccc(O)cc2)cc1 [Compound 428]
5.00 to 5.52	COc1ccc(OCCCN(C(=O)CCCCC(=O)c2ccc(OC)cc2)[C@H](CN2CCCC2)[C@H](O)c2ccc(O)cc2)cc1 [Compound 429]
